Where two headings read alike, the source gives them in different places.
Assays:
[1] = Hepatocyte stability; format: in vitro ADME, dog (Beagle); details: Dog, 1 μmol/L
Description: (§1) Metabolic stability: liver microsomes and hepatocytes from human, mouse (CD1), rat (Sprague Dawley) and dog (Beagle) were obtained from Invitrogen. RXC004 (1 μmol/L) was incubated at 37°C with microsomes (0.5 mg · mL^−1) or hepatocytes (0.5 × 10^6 cells · mL^−1). Aliquots were removed at 0–45 minutes and RXC004 concentrations determined by LC/MS-MS analysis. Half-life (T1/2) and intrinsic clearance (CLint) were calculated as described in ref. [18].

[2] = target: T1, CYP2C19 (Homo sapiens, UniProt P33261); assay: Cytochrome P450 inhibition in human liver microsomes; format: in vitro ADME
T1 construct: from tissue; host or cells: human liver microsomes
T1 sequence (P33261 whole entry): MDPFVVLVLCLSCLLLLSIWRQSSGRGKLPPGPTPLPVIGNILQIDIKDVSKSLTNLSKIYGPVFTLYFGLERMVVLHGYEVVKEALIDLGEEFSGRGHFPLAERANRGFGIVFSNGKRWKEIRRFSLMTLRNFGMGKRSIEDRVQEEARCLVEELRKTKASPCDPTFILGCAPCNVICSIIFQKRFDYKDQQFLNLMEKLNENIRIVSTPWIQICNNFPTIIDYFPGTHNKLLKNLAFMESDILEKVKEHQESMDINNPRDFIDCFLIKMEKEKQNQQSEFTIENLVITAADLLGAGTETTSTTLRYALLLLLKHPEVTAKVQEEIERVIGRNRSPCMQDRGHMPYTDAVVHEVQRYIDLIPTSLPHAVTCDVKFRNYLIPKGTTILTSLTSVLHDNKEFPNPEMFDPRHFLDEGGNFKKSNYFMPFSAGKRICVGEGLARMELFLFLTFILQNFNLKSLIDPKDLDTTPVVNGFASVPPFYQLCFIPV
Description: (§2) Cytochrome P450 (CYP) assays were performed using human liver microsomes incubated with P450 specific substrates as recommended by the FDA ([19]) at a concentration equivalent to Km in the presence of 0.03–30 μmol/L RXC004, or solvent control. Concentration of the metabolites was analyzed by LC/MS-MS.

[3] = target: T2, CYP1A2 (Homo sapiens, UniProt P05177); assay: as above; format: in vitro ADME
T2 construct: from tissue; host or cells: human liver microsomes
T2 sequence (P05177 whole entry): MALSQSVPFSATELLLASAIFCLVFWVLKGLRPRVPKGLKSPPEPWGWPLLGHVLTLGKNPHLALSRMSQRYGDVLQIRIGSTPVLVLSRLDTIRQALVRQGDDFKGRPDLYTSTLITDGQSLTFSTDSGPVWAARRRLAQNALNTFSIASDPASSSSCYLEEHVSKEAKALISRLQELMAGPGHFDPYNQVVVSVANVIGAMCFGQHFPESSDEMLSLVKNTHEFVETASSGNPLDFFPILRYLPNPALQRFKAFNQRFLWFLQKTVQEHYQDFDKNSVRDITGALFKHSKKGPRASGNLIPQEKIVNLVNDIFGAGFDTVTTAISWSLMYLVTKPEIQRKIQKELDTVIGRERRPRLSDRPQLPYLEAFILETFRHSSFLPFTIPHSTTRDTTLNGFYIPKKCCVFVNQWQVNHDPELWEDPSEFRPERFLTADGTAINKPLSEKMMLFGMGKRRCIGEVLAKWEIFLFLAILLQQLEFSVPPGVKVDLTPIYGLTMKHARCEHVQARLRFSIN
Description: as §2

[4] = target: T3, CYP2C9 (Homo sapiens, UniProt P11712); assay: as above; format: in vitro ADME
T3 construct: from tissue; host or cells: human liver microsomes
T3 sequence (P11712 whole entry): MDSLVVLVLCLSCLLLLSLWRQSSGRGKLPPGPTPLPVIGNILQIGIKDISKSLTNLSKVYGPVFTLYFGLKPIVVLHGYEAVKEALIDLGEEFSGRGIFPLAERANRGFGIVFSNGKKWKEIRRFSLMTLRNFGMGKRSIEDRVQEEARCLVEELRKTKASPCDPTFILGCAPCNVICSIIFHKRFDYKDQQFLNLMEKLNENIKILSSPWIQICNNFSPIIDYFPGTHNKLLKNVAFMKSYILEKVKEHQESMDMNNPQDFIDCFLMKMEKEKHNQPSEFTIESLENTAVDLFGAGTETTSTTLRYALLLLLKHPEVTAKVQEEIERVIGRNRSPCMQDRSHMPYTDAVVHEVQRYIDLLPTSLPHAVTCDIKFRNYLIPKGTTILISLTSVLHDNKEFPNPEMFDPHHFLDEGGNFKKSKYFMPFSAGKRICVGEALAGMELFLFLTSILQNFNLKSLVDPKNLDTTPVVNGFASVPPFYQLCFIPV
Description: as §2

[5] = target: T4, CYP2D6 (Homo sapiens, UniProt P10635); assay: as above; format: in vitro ADME
T4 construct: from tissue; host or cells: human liver microsomes
T4 sequence (P10635 whole entry): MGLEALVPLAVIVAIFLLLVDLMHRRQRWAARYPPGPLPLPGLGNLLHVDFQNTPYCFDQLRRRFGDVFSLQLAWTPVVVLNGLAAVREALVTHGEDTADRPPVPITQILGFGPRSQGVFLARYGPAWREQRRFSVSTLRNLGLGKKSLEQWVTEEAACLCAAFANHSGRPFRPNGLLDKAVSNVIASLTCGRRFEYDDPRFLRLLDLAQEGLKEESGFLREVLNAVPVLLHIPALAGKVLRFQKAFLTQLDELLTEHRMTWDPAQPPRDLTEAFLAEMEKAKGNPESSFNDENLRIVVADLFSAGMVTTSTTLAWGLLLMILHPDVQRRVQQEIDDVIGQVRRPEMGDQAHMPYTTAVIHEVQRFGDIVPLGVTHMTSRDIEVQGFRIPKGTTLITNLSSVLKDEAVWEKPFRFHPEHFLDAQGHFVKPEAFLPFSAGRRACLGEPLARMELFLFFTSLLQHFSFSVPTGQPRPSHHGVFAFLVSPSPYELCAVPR
Description: as §2

[6] = target: T5, CYP3A4 (Homo sapiens, UniProt P08684); assay: as above; format: in vitro ADME
T5 construct: from tissue; host or cells: human liver microsomes
T5 sequence (P08684 whole entry): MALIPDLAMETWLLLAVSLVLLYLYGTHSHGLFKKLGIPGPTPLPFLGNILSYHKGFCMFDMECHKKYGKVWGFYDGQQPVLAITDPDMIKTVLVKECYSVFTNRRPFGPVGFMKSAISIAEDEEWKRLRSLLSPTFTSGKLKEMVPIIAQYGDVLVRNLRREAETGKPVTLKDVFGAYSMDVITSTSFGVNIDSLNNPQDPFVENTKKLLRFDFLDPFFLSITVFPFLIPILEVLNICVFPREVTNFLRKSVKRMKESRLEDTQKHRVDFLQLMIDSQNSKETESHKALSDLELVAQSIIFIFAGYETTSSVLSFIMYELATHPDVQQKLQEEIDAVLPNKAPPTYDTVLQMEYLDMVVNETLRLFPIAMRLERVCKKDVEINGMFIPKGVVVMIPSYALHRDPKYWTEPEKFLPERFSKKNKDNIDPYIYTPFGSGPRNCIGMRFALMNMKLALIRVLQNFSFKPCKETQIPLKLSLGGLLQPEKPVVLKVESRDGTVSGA
Description: as §2

[7] = test system: recombinant CYP enzymes; assay: Recombinant CYP enzyme assays (metabolism); format: in vitro ADME
[8] = test system: HPAF-II cells; assay: Caspase 3/7 analysis; format: cell-based, human; details: 100nM, 7 days
Description: (§3) Cells were treated with RXC004 (100 nmol/L) or DMSO (0.02%) for 7 days. Caspase 3/7 activity was measured using Caspase-Glo 3/7 Assay System (Promega #G8091) and data were plotted as a ratio relative to cell number as quantified using ATPlite 1-Step Reagent (Perkin Elmer #6016731).

[9] = test system: SNU-1411 cells; assay: Caspase 3/7 analysis; format: cell-based, human; details: SNU-1411, 100nM, 7 days
Description: as §3

[10] = In vivo pharmacokinetics; set-up: species or system mouse (male CD1); details: mouse
Description: (§4) In vivo pharmacokinetics: RXC004 was dosed to male Sprague Dawley rats, male CD1 mice or dog (beagle) by intravenous and oral routes. Bioanalysis of blood and plasma samples was performed by LC/MS-MS using a Waters TQS or TQMS mass spectrometer. Pharmacokinetic information was derived using WinNonlin software (Certara).

[11] = Microsomal stability; format: in vitro ADME, rat (Sprague Dawley); details: Rat, 1 μmol/L
Description: as §1

[12] = test system: cells with upstream aberrations in Wnt pathway components; assay: Cell-cycle analysis by flow cytometry; format: cell-based, human; details: 100 nmol/L, 3 days
Description: For concentration–response effects on gene expression, Single-Shot Cell Lysis kit (Bio-Rad #172-5080) was used for RNA extraction, data were normalized to DMSO-treated controls, and IC50 values determined. For cell-cycle analysis, the cancer cell line panel was treated with RXC004 (100 nmol/L) or DMSO (0.1%) for 3 days. Cell-cycle profiles were determined by staining with propidium iodide (Thermo Fisher Scientific #P3566) and phospho-Ser10-Histone-H3 (AlexaFluor-647, BioLegend #650806), and quantified using an Agilent Novocyte-3000 flow cytometer. For in vitro growth curve analysis, HPAF-II and SNU-1411 cells were seeded in 96-well plates at 2,000 cells/well and imaged on the IncuCyte (Sartorius) at 10× magnification with 4 fields of view per well. Total cell object count over time was calculated using the Adherent Cell-by-Cell analysis module.

[13] = test system: SNU-1411 xenograft; assay: SNU-1411 tumor reimplantation study; format: in vivo, mouse (NOD-SCID); details: prior treatment 5 mg/kg once daily, 9 days; versus vehicle pretreated
Description: The reimplantation study was performed at Sygnature Discovery. SNU-1411–implanted NOD-SCID mice were dosed orally with RXC004 (5 mg/kg, once daily) once tumors reached an average size of 350 mm^3. After 9 days treatment, tumors were resected and equivalent viable tumor fragments from each tumor were reimplanted into separate naïve NOD-SCID mice, tumor volume was assessed at various subsequent timepoints.

[14] = In vivo pharmacokinetics; details: beagle, dog
Description: as §4

[15] = test system: MDR1; assay: Permeability in MDR1-MDCKII cells; format: in vitro ADME; details: dog, MDCK-MDR1, 10 μmol/L, 2 hours
Description: (§5) Permeability of RXC004 was assessed in MDR1-MDCKII (Netherlands Cancer Institute) and Caco-2 cells (Merck Life Sciences). RXC004 (10 μmol/L) was added to either apical or basolateral chamber for 2 hours at 37°C, then an aliquot from the opposite side of the monolayer was removed and quantified by LC/MS-MS. Apparent permeability (Papp) was calculated according to standard practice ([20]).

[16] = test system: MDR1-MDCKII cells; assay: Permeability in MDR1-MDCKII cells; format: in vitro ADME; details: MDR1-MDCKII cells
Description: as §5

[17] = Hepatocyte stability; format: in vitro ADME, mouse (CD1); details: Mouse, 1 μmol/L
Description: as §1

[18] = test system: Wnt5a secretion from L-Wnt5a cells; assay: Wnt secretion assay; format: cell-based; details: 300 nmol/L, 48 hours
Description: L-Wnt5a cells (L cells overexpressing Wnt5a; ATCC CRL-2814) were treated with RXC004 (300 nmol/L) or DMSO for 48 hours. Wnt5a secreted into media was detected by Western blotting using anti-Wnt5a antibody (Cell Signaling Technology #2530).

[19] = male, CD1, in vivo, po, 5 mg/kg p.o.

Q: With `Cc1c(-c2ccnc(C(F)(F)F)c2)ncn1CC(=O)Nc1ccc(-c2cnccn2)cn1` [RXC004, 2-[5-methyl-4-[2-(trifluoromethyl)-4-pyridyl]imidazol-1-yl]-N-(5-pyrazin-2-yl-2-pyridyl)acetamide] as the molecule, how does the “Hepatocyte stability: CLint” value [1] read?
A: The value was 12.5 μL minute^−^1 · 10^6 cells^−^1.

Q: What about the IC50 [2] of the same molecule?
A: The IC50 was greater than 25 µM.

Q: What about the IC50 [3] of the same molecule?
A: Its IC50 is greater than 25 µM.

Q: And the IC50 [4]?
A: The IC50 was greater than 25 µM.

Q: What about the IC50 [5] of the same molecule?
A: The IC50 was greater than 25 µM.

Q: What about the IC50 [6] of the same molecule?
A: Its IC50 is greater than 25 µM.

Q: What about the “metabolizing CYP enzyme” value [7] of the same molecule?
A: The value was “exclusively metabolized by CYP3A4”.

Q: And the “relative Caspase 3/7 activity” value [8]?
A: The value was “no effect”.

Q: And the “relative Caspase 3/7 activity” value [9]?
A: The value was “no effect”.

Q: And the clearance ([10]; male, CD1, in vivo, intravenous, 2 mg/kg, dose i.v./p.o. 2/5 mg/kg)?
A: The clearance was 2.9 mL/min/kg.

Q: What about the Vd ([10]; male, CD1, in vivo, intravenous, 2 mg/kg, dose i.v./p.o. 2/5 mg/kg, read-out: Vss) of the same molecule?
A: The Vd was 0.4 L/kg.

Q: What about the AUC(0-inf) [10, 19] of the same molecule?
A: Its AUC(0-inf) is 33.9 µM·h.

Q: And the Cmax [10, 19]?
A: Its Cmax is 7.6 µM.

Q: What about the concentration at 24 h ([10]; male, CD1, in vivo, po, 5 mg/kg p.o., read-out: C24h (p.o.)) of the same molecule?
A: The concentration at 24 h was 0.002 µM.

Q: What about the half-life ([10]; male, CD1, in vivo, dose i.v./p.o. 2/5 mg/kg, read-out: T½ (converted)) of the same molecule?
A: The half-life was 1.8 h.

Q: What about the “F (p.o.)” value ([10]; dose i.v./p.o. 2/5 mg/kg) of the same molecule?
A: The value was 48%.

Q: And the “Microsomal stability: CLint” value [11]?
A: The value was 7.8 μL minute^−^1 · mg^−^1.

Q: And the “expression of mitosis marker phospho-histone-H3” value [12]?
A: The value was “strongly inhibited expression of the mitosis marker phospho-histone-H3”.

Q: And the “proportion of cells in S-phase” value [12]?
A: The value was “reduced the proportion of cells in S-phase”.

Q: And the “tumor growth after reimplantation into naïve untreated mice” value [13]?
A: Its value is “prolonged impact on tumor growth”.

Q: What about the half-life ([14]; dose i.v./p.o. 2/5 mg/kg, read-out: T½ (converted)) of the same molecule?
A: Its half-life is 0.8 h.

Q: And the clearance ([14]; intravenous, 2 mg/kg, dose i.v./p.o. 2/5 mg/kg)?
A: Its clearance is 8.9 mL/min/kg.

Q: What about the Vd ([14]; intravenous, 2 mg/kg, dose i.v./p.o. 2/5 mg/kg, read-out: Vss) of the same molecule?
A: The Vd was 0.39 L/kg.

Q: And the AUC(0-inf) ([14]; po, 5 mg/kg p.o.)?
A: The AUC(0-inf) was 8.6 µM·h.

Q: What about the Cmax ([14]; po, 5 mg/kg p.o.) of the same molecule?
A: Its Cmax is 10.4 µM.

Q: And the concentration at 24 h ([14]; po, 5 mg/kg p.o., read-out: C24h (p.o.))?
A: Its concentration at 24 h is 0.012 µM.

Q: What about the Papp A→B at 2 h, 10 μmol/L ([15]; apical to basolateral, read-out: MDCK PappA-B) of the same molecule?
A: Its Papp A→B at 2 h, 10 μmol/L is 15 ×10⁻⁶ cm/s.

Q: And the Papp B→A at 2 h, 10 μmol/L ([15]; basolateral to apical, read-out: MDCK PappB-A)?
A: Its Papp B→A at 2 h, 10 μmol/L is 51.9 ×10⁻⁶ cm/s.

Q: And the efflux [16]?
A: The efflux was “some evidence of efflux in MDR1-MDCKII cells”.

Q: What about the “Hepatocyte stability: CLint” value [17] of the same molecule?
A: The value was <3.0 μL minute^−^1 · 10^6 cells^−^1.

Q: And the “Wnt5a secretion into the media” value [18]?
A: The value was “inhibited Wnt5a secretion”.
